The record followed here is patent publication US11279735B2, “Cyclic peptide antibiotics” (priority 2017, dated 2022).

In brackets after ≈: the same amount, converted by molar mass. *1 amine or outer side, *2 acyl side, *3 side chain or, on linkers, in order; H or OH if unused. Where a SMILES comes first, the peptide text is derived from it. [ ]: non-standard residue; d: D form. The star is where a group is joined. X12 = C[C@H](CO[C@H](CC12CC3CC(CC(C3)C1)C2)[C@@H](C)C(=O)[*:2])N[*:1]; X13 = C[C@H](CO[C@H](CC1CC2(CCC2)C1)[C@@H](C)C(=O)[*:2])N[*:1]; X2 = CCCCCC[C@@H](OC[C@@H](C)N[*:1])[C@@H](C)C(=O)[*:2]; Gly(cHept) = N[C@H](C(=O)O)C1CCCCCC1; Propyl(3-guanidino) = N=C(N)NCCC*; aThr = C[C@H](O)[C@H](N)C(=O)O; NMeL = CN[C@@H](CC(C)C)C(=O)O; Chg = N[C@H](C(=O)O)C1CCCCC1; NMeNva = CCC[C@H](NC)C(=O)O; Dap = NC[C@H](N)C(=O)O; X11 = OC[C@H](O)C*; X20 = C1NCC1C*

The test concerns Escherichia coli (E. coli) strain CFT073 ATCC 700928. Type of test: cell-based. The conditions noted are these: ATCC 700928, 22 h. As for the experimental part: In vitro antimicrobial activity of each compound was determined by measuring minimal inhibitor concentrations (MICs) using the broth micro-dilution technique as approved by the Clinical and Laboratory Standards Institute (CLSI) (Methods for Dilution Antimicrobial Susceptibility Tests for Bacteria that Grow Aerobically; Approved Standard—Eighth Edition. CLSI document M07-A8. Wayne, Pa.: Clinical and Laboratroy Standards; 2009). Antibacterial activity was measure against Escherichia coli (E. coli) strain CFT073 ATCC 700928, which is a clinically relevant Gram-negative strain. Cells were inoculated onto plates of Mueller Hinton Agar and grown at 37° C. for 16-18 hours. Inocula suspensions were prepared by scraping cells into 1 mL of testing media (Mueller Hinton II cation adjusted Broth supplemented with 0.002% v/v Tween-80) and diluting to a final OD600 nm of 0.01.
Test compounds were prepared in DMSO at a concentration of 100 uM The compounds were tested under several different dilution formats and the data are reported in Tables 6, 7 and 8. In protocol 1, the compound stocks were diluted into testing media at a concentration of 64 μg/ml and serial 2-fold dilutions were made in the same media, in 96-well U bottom microtiter dishes, for a total of 10 compound concentrations. In protocol 2, the compound stocks were diluted into testing media at a concentration of 4 μg/mL and serial 2-fold dilutions were made in the same media, in 96-well U bottom microtiter dishes, for a total of 10 compound concentrations. In protocol 3, compound stocks were diluted into testing media at a concentration of 0.5 μg/mL, with serial 2-fold dilutions conducted as described above. In protocol 4, compound stocks were diluted into testing media at a concentration of 0.13 μg/mL, with serial 2-fold dilutions conducted as described above. Inocula suspensions were added to the 2-fold serial dilutions of test compounds to a final density of OD OD600 nm of 0.0005 and incubated at 35° C. for 22 hours.
For orientation: MIC means the least concentration at which growth counts as inhibited. Lower therefore signals inhibition by little substance. Turning to `CCCCCC[C@H]1OC(=O)CNC(=O)[C@H](COCCCN)NC(=O)[C@H](CN)NC(=O)[C@H](C2CCCCCC2)NC(=O)[C@H](CCC)N(C)C(=O)[C@@H]1C` [Example 133, (6S,9S,12S,15S,18R,19R)-9-(aminomethyl)-6-(3-aminopropoxymethyl)-12-cycloheptyl-19-hexyl-16,18-dimethyl-15-propyl-1-oxa-4,7,10,13,16-pentazacyclononadecane-2,5,8,11,14,17-hexone], the MIC amounted to 3.1 µM (≈ 2.24 µg/mL). The figure for `CCC[C@H]1C(=O)N[C@@H](C2CCCCCC2)C(=O)N[C@@H](CN)C(=O)N[C@@H](COCC2CNC2)C(=O)N[C@H](C)CO[C@H](CC2CC3(CCC3)C2)[C@@H](C)C(=O)N1C` [Example 171, (3R,6S,9S,12S,15S,18R,19R)-9-(Aminomethyl)-6-((azetidin-3-ylmethoxy)methyl)-12-cycloheptyl-3,16,18-trimethyl-15-propyl-19-(spiro[3.3]heptan-2-ylmethyl)-1-oxa-4,7,10,13,16-pentaazacyclononadecane-5,8,11,14,17-pentaone] (cyclo([Dap]S(X20)[X13][NMeNva][Gly(cHept)])) is 6.3 µM (≈ 4.79 µg/mL); for `CCC[C@H]1C(=O)N[C@@H](C2CCCCCC2)C(=O)N[C@@H](CN)C(=O)N[C@@H]([C@H](C)O)C(=O)NCC(=O)O[C@H](CC2CC3(CCC3)C2)[C@@H](C)C(=O)N1C` [Example 84, (6S,9S,12S,15S,18R,19R)-9-(Aminomethyl)-12-cycloheptyl-6-((S)-1-hydroxyethyl)-16,18-dimethyl-15-propyl-19-(spiro[3.3]heptan-2-ylmethyl)-1-oxa-4,7,10,13,16-pentaazacyclononadecane-2,5,8,11,14,17-hexaone] it is 0.78 µM (≈ 0.55 µg/mL); for `CCCCCCCCCC[C@H]1OC(=O)CNC(=O)[C@H](CCO)NC(=O)[C@H](CN)NC(=O)[C@H]([C@H](C)CC)NC(=O)[C@H](CC(C)C)N(C)C(=O)[C@@H]1C` [Example 10, (6S,9S,12S,15S,18R,19R)-9-(aminomethyl)-19-decyl-6-(2-hydroxyethyl)-15-isobutyl-16,18-dimethyl-12-[(1R)-1-methylpropyl]-1-oxa-4,7,10,13,16-pentazacyclononadecane-2,5,8,11,14,17-hexone] it is 6.3 µM (≈ 4.48 µg/mL). The figure for `CCCCCC[C@H]1OC[C@@H](C)NC(=O)[C@H](COC[C@@H](O)CO)NC(=O)[C@H](CN)NC(=O)[C@H](C2CCCCC2)NC(=O)[C@H](CC(C)C)N(C)C(=O)[C@@H]1C` [Example 67, (3R,6S,9S,12S,15S,18R,19R)-9-(Aminomethyl)-12-cyclohexyl-6-(((S)-2,3-dihydroxypropoxy)methyl)-19-hexyl-15-isobutyl-3,16,18-trimethyl-1-oxa-4,7,10,13,16-pentaazacyclononadecane-5,8,11,14,17-pentaone] (cyclo([Chg][Dap]S(X11)[X2][NMeL])) is 8.8 µM (≈ 6.52 µg/mL); for `CCCCCC[C@H]1OC[C@@H](C)NC(=O)[C@H](COCCCNC(=N)N)NC(=O)[C@H](CN)NC(=O)[C@H](C2CCCCC2)NC(=O)[C@H](CC(C)C)N(C)C(=O)[C@@H]1C` [Example 82, 1-(3-(((3R,6S,9S,12S,15S,18R,19R)-9-(Aminomethyl)-12-cyclohexyl-19-hexyl-15-isobutyl-3,16,18-trimethyl-5,8,11,14,17-pentaoxo-1-oxa-4,7,10,13,16-pentaazacyclononadecan-6-yl)methoxy)propyl)guanidine] (cyclo([Chg][Dap]S(Propyl(3-guanidino))[X2][NMeL])) it is 4.4 µM (≈ 3.37 µg/mL); for `CC(C)C[C@H]1C(=O)N[C@@H](C2CCCCC2)C(=O)N[C@@H](CN)C(=O)N[C@@H]([C@H](C)O)C(=O)N[C@H](C)CO[C@H](CC23CC4CC(CC(C4)C2)C3)[C@@H](C)C(=O)N1C` [Example 74, (3R,6S,9S,12S,15S,18R,19R)-19-(((1r,3R,5S)-Adamantan-1-yl)methyl)-9-(aminomethyl)-12-cyclohexyl-6-((S)-1-hydroxyethyl)-15-isobutyl-3,16,18-trimethyl-1-oxa-4,7,10,13,16-pentaazacyclononadecane-5,8,11,14,17-pentaone] (cyclo([Chg][Dap][aThr][X12][NMeL])) it is 1.6 µM (≈ 1.19 µg/mL). The figure for `CCCCCC[C@H]1OC[C@@H](C)NC(=O)[C@H]([C@H](C)O)NC(=O)[C@H](CN)NC(=O)[C@H](C2CCCCC2)NC(=O)[C@H](CC(C)C)N(C)C(=O)[C@@H]1C` [Example 57, (3R,6S,9S,12S,15S,18R,19R)-9-(Aminomethyl)-12-cyclohexyl-19-hexyl-6-((S)-1-hydroxyethyl)-15-isobutyl-3,16,18-trimethyl-1-oxa-4,7,10,13,16-pentaazacyclononadecane-5,8,11,14,17-pentaone] (cyclo([Chg][Dap][aThr][X2][NMeL])) is 2.9 µM (≈ 1.97 µg/mL); for `CCCCCCCCCC[C@H]1OC(=O)[C@H](C)NC(=O)[C@H]([C@H](C)O)NC(=O)[C@H](CO)NC(=O)[C@H]([C@@H](C)CC)NC(=O)[C@H](CC(C)C)N(C)C(=O)[C@@H]1C` [Example 33, (3S,6S,9S,12S,15S,18R,19R)-19-decyl-6-[(1S)-1-hydroxyethyl]-9-(hydroxymethyl)-15-isobutyl-3,16,18-trimethyl-12-[(1S)-1-methylpropyl]-1-oxa-4,7,10,13,16-pentazacyclononadecane-2,5,8,11,14,17-hexone] it is 13 µM (≈ 9.44 µg/mL). As to `CCCCCC[C@H]1OC(=O)CNC(=O)[C@H]([C@H](C)O)NC(=O)[C@H](CN)NC(=O)[C@H](C2CCCCC2)NC(=O)[C@H](CC(C)C)N(C)C(=O)[C@@H]1Cc1ccc(C)cc1` [Example 96, (6S,9S,12S,15S,18R,19R)-9-(aminomethyl)-12-cyclohexyl-19-hexyl-15-isobutyl-16-methyl-18-(p-tolylmethyl)-6-[(1S)-1-hydroxyethyl]-1-oxa-4,7,10,13,16-pentazacyclononadecane-2,5,8,11,14,17-hexone], the MIC was 5.3 µM (≈ 4.09 µg/mL).

In turn, `COC(C)(C)CCCCCC[C@H]1OC(=O)CNC(=O)[C@H]([C@H](C)O)NC(=O)[C@H](CN)NC(=O)[C@H](C2CCCCC2)NC(=O)[C@H](CC(C)C)N(C)C(=O)[C@@H]1C` [Example 64, (6S,9S,12S,15S,18R,19R)-9-(Aminomethyl)-12-cyclohexyl-6-((S)-1-hydroxyethyl)-15-isobutyl-19-(7-methoxy-7-methyloctyl)-16,18-dimethyl-1-oxa-4,7,10,13,16-pentaazacyclononadecane-2,5,8,11,14,17-hexaone] returned an MIC of 2.2 µM (≈ 1.66 µg/mL). Compared with the last molecule, the MIC is about 2.4-fold lower. The molecule `CCCCCCCCCC[C@H]1OC(=O)CNC(=O)[C@H](CC)NC(=O)[C@H](CO)NC(=O)[C@H]([C@@H](C)CC)NC(=O)[C@H](CC(C)C)N(C)C(=O)[C@@H]1C` [Example 24, (6S,9S,12S,15S,18R,19R)-19-decyl-16-ethyl-9-(hydroxymethyl)-15-isobutyl-16,18-dimethyl-12-[(1S)-1-methylpropyl]-1-oxa-4,7,10,13,16-pentazacyclononadecane-2,5,8,11,14,17-hexone] showed an MIC of 13 µM (≈ 9.05 µg/mL). The figure for `CCCCCC[C@H]1OC[C@@H](C)NC(=O)[C@H](COC)NC(=O)[C@H](CN)NC(=O)[C@H](C2CCCCC2)NC(=O)[C@H](CC(C)C)N(C)C(=O)[C@@H]1C` [Example 128, (3R,6S,9S,12S,15S,18R,19R)-9-(aminomethyl)-12-cyclohexyl-19-hexyl-15-isobutyl-6-(methoxymethyl)-3,16,18-trimethyl-1-oxa-4,7,10,13,16-pentazacyclononadecane-5,8,11,14,17-pentone] (cyclo([Chg][Dap]S(Me)[X2][NMeL])) is 3.1 µM (≈ 2.11 µg/mL); for `CCCCCC[C@H]1OC(=O)CNC(=O)[C@H](CO[C@H]2C[C@H](N)C2)NC(=O)[C@H](CN)NC(=O)[C@H](C2CCCCC2)NC(=O)[C@H](CC(C)C)N(C)C(=O)[C@@H]1C` [Example 58, (6S,9S,12S,15S,18R,19R)-6-(((1r,3S)-3-Aminocyclobutoxy)methyl)-9-(aminomethyl)-12-cyclohexyl-19-hexyl-15-isobutyl-16,18-dimethyl-1-oxa-4,7,10,13,16-pentaazacyclononadecane-2,5,8,11,14,17-hexaone] it is 6.3 µM (≈ 4.64 µg/mL); for `CCCCCCCCCC[C@H]1OC(=O)CNC(=O)[C@H]([C@H](C)O)NC(=O)[C@H](CN)NC(=O)[C@H](CCc2ccccc2)NC(=O)[C@H](CC(C)C)N(C)C(=O)[C@@H]1C` [Example 46, (6S,9S,12S,15S,18R,19R)-9-(aminomethyl)-19-decyl-6-[(1S)-1-hydroxyethyl]-15-isobutyl-16,18-dimethyl-12-(2-phenylethyl)-1-oxa-4,7,10,13,16-pentazacyclononadecane-2,5,8,11,14,17-hexone] it is 25 µM (≈ 19 µg/mL). The figure for `CCC[C@H]1C(=O)N[C@@H](C2CCCCCC2)C(=O)N[C@@H](CN)C(=O)N[C@@H](CO[C@H]2C[C@H](N)C2)C(=O)NCC(=O)O[C@H](CCC2CC3CCC2C3)[C@@H](C)C(=O)N1C` (stereo partly drawn) [Example 137, (6S,9S,12S,15S,18R,19R)-6-[(3-aminocyclobutoxy)methyl]-9-(aminomethyl)-12-cycloheptyl-16,18-dimethyl-19-(2-norbornan-2-ylethyl)-15-propyl-1-oxa-4,7,10,13,16-pentazacyclononadecane-2,5,8,11,14,17-hexone] is 0.78 µM (≈ 0.604 µg/mL).
